experiment: in vitro; conditions: human, hela cells, % viability

| Structure (SMILES) | viability at 28.5 h, 10 µM [%] |
| --- | --- |
| Nc1ccn([C@H]2C[C@@H](O)[C@@H](CO)O2)c(=O)n1 [CBK201274] | 96.2 |
| Nc1nc(N)c2ncn([C@@H]3O[C@H](CO)[C@H](O)C3O)c2n1 (some centres unmarked) [CBK201275] | 102 |
| CN(C)/C=N/c1nc2c(ccn2C2CC(O)C(CO)O2)c(=O)[nH]1 (centres unmarked) [CBK201276] | 107 |
| Cn1c(=O)ccn([C@@H]2O[C@H](CO)[C@H](O)C2O)c1=O (some centres unmarked) [CBK201281] | 104 |
| Cc1ccc(S(=O)(=O)OC[C@H]2O[C@@H](n3ccc(=O)[nH]c3=O)C[C@H]2O)cc1 [CBK201283] | 95.7 |
| Nc1ncnc2c1[nH]c(=O)n2[C@H]1C[C@@H](O)[C@@H](CO)O1 [CBK201284] | 98.3 |
| Cc1cc2cn([C@H]3C[C@@H](O)[C@@H](CO)O3)c(=O)nc2o1 [CBK201287] | 96 |
| O=C(Nc1ncnc2c1ccn2C1CC(O)C(CO)O1)c1ccccc1 (centres unmarked) [CBK201289] | 96.3 |
| Nc1nc(Cl)c2ncn([C@@H]3O[C@H](CO)[C@H](O)C3O)c2n1 (some centres unmarked) [CBK201291] | 81 |
| Nc1nc2c(ncn2[C@H]2C[C@@H](O)[C@@H](CO)O2)c(=O)[nH]1 [CBK201294] | 98.1 |
| O=C(NC/C=C/c1cn(C2OC(CO)C(O)C2O)c(=O)[nH]c1=O)C(F)(F)F (centres unmarked) [CBK201298] | 104 |
| C=CCOc1nc2c(=O)[nH]c(/N=C/N(C)C)nc2n1C1CC(O)C(CO)O1 (centres unmarked) [CBK201299] | 93.3 |
| CN1N=C(N)c2cn([C@@H]3O[C@H](COP(=O)(O)O)[C@H](O)C3O)c3ncnc1c23 (some centres unmarked) [CBK201301] | 73.9 |
| Nc1ncc2ncn([C@H]3C[C@@H](O)[C@@H](CO)O3)c2n1 [CBK201303] | 102 |
| Nc1ncnc2c1nc1n2[C@@H]2O[C@@H]([C@H](O)C2O)[C@H]1O (some centres unmarked) [CBK201305] | 98.1 |
| Nc1nc(=O)n([C@@H]2O[C@H](CO)[C@H](O)C2O)cc1I (some centres unmarked) [CBK201306] | 107 |
| Cc1cn([C@H]2C[C@@H](O)[C@@H](CO)O2)c(=O)nc1N [CBK201307] | 100 |
| Nc1nc(Cl)c2ccn([C@H]3C[C@@H](O)[C@@H](CO)O3)c2n1 [CBK201309] | 92.4 |
| Cn1cnc2c(ncn2C2OC(CO)C(O)C2O)c1=N (centres unmarked) [CBK201313] | 102 |
| COc1nc(N)nc2c1ncn2C1CC(O)C(CO)O1 (centres unmarked) [CBK201314] | 89.4 |
| Cc1cn([C@H]2C[C@@H](O)[C@@H](CN)O2)c(=O)[nH]c1=O [CBK201315] | 96.2 |
| O=c1ccn([C@H]2C[C@@H](O)[C@@H](CO)O2)c(=O)[nH]1 [CBK201316] | 98.3 |
| CN(C)/C=N/c1nc2c(nc(Br)n2C2CC(O)C(CO)O2)c(=O)[nH]1 (centres unmarked) [CBK201319] | 84.7 |
| Cc1cn([C@H]2C[C@@H](O)[C@@H](CO)O2)c(=O)n(CCC#N)c1=O [CBK201322] | 98.4 |
| Nc1nc(=O)[nH]c2c1ncn2[C@H]1C[C@@H](O)[C@@H](CO)O1 [CBK201323] | 86 |
| COC1C(O)C(CO)OC1n1cnc2c(=O)[nH]c(N)nc21 (centres unmarked) [CBK201324] | 96.2 |

| Structure (SMILES) | viability at 28.5 h, 10 µM [%] |
| --- | --- |
| Nc1ncnc2c1cnn2[C@H]1C[C@@H](O)[C@@H](CO)O1 [CBK201325] | 98 |
| Nc1ncn([C@H]2C[C@@H](O)[C@@H](CO)O2)c(=O)n1 [CBK201329] | 92.8 |
| CN(C)/C=N/c1nc(=O)n([C@H]2CC(O)[C@@H](CO)O2)cc1/C=C/C(=O)NCCCCCCNC(=O)C(F)(F)F (some centres unmarked) [CBK201330] | 97.1 |
| Nc1nc2c(nc(Br)n2[C@H]2C[C@@H](O)[C@@H](CO)O2)c(=O)[nH]1 [CBK201333] | 108 |
| CCOc1nc(=O)c(C)cn1C1CC(O)C(CO)O1 (centres unmarked) [CBK201334] | 96.5 |
| CONc1nc(/N=C/N(C)C)nc2c1ncn2C1CC(O)C(CO)O1 (centres unmarked) [CBK201335] | 92.7 |
| COCC1OC(n2cc(C)c(=O)[nH]c2=O)CC1O (centres unmarked) [CBK201338] | 94.5 |
| Nc1ncnc2c1ncn2[C@H]1C[C@@H](O)[C@@H](CO)O1 [CBK201382] | 94.9 |
| Cc1nc(COc2ccccc2)sc1C(=O)N1CCC(C(N)=O)CC1 [CBK202603] | 103 |
| O=C(O)CN1C(=O)[C@@H]2Cc3ccccc3CN2C1=O [CBK202728] | 82.8 |
| CC(=O)Nc1sc2c(c1-c1nc3ccccc3s1)CCN(C(C)C)C2 [CBK211288] | 3.98 |
| COCCNC(=O)C1CCN(c2nc3c(-c4ccccc4F)csc3c(=O)[nH]2)CC1 [CBK215434] | 92.6 |
| CN(C)CCNC(=O)C1CCN(c2nc3c(-c4ccccc4F)csc3c(=O)[nH]2)CC1 [CBK215437] | 85.1 |
| COc1ccc(CNC(=O)C2CCCN(c3nc4c(-c5ccccc5)csc4c(=O)[nH]3)C2)cc1 (centres unmarked) [CBK215464] | 95.2 |
| NC(=O)CNC(=O)C1CCCN(c2nc3c(-c4ccccc4)csc3c(=O)[nH]2)C1 (centres unmarked) [CBK215487] | 112 |
| O=C(NCc1cccnc1)C1CCCN(c2nc3c(-c4ccccc4)csc3c(=O)[nH]2)C1 (centres unmarked) [CBK215492] | 112 |
| O=C(NCCc1cccnc1)C1CCCN(c2nc3c(-c4ccccc4)csc3c(=O)[nH]2)C1 (centres unmarked) [CBK215495] | 88.7 |
| COc1ccc(CNC(=O)C2CCCN(c3nc4c(-c5ccc(C)cc5)csc4c(=O)[nH]3)C2)cc1 (centres unmarked) [CBK215530] | 112 |
| Cc1cccc(-c2csc3c(=O)[nH]c(N4CCC(C(=O)NCc5ccncc5)CC4)nc23)c1 [CBK215625] | 106 |
| COCCCNC(=O)C1CCN(c2nc3c(-c4cccc(C)c4)csc3c(=O)[nH]2)CC1 [CBK215630] | 96.6 |
| Cc1cccc(-c2csc3c(=O)[nH]c(N4CCC(C(=O)NCCN(C)C)CC4)nc23)c1 [CBK215633] | 95.8 |
| Cc1cccc(-c2csc3c(=O)[nH]c(N4CCC(C(=O)NCCN5CCOCC5)CC4)nc23)c1 [CBK215640] | 105 |
| Cc1cccc(-c2csc3c(=O)[nH]c(N4CCC(C(=O)N5CCOCC5)CC4)nc23)c1 [CBK215644] | 89.7 |
| CCCC(N)CCCCCC(=O)O (centres unmarked) [CBK217078] | 91.8 |
| CC(C)CC(NS(=O)(=O)c1cccc2nsnc12)C(=O)O (centres unmarked) [CBK217288] | 94.2 |
| Cc1ccc(S(=O)(=O)NC(Cc2ccccc2)C(=O)O)cc1 (centres unmarked) [CBK217645] | 102 |

| Structure (SMILES) | viability at 28.5 h, 10 µM [%] |
| --- | --- |
| Cc1ccc(OCC(=O)NC(Cc2ccccc2)C(=O)O)cc1 (centres unmarked) [CBK217681] | 102 |
| O=C(NC(Cc1c[nH]c2ccccc12)C(=O)O)c1ccco1 (centres unmarked) [CBK217706] | 92.5 |
| N#CC1=C(N)n2c(s/c(=C\c3ccc(O)cc3)c2=O)=C(C#N)C1c1ccc(O)cc1 (centres unmarked) [CBK217780] | 103 |
| O=C(O)C(Cc1cnc[nH]1)N1C(=O)c2ccccc2C1=O (centres unmarked) [CBK217815] | 110 |
| O=C(O)CSc1n[nH]c(=O)[nH]c1=O [CBK217819] | 94.8 |
| O=c1c(Oc2ccccc2Br)c(C(F)(F)F)oc2c(CN3CCCC3)c(O)ccc12 [CBK217827] | 96 |
| O=c1c2ccccc2nc(CSc2[nH]cnc3ncnc2-3)n1-c1ccc(Cl)c(Cl)c1 [CBK217854] | 93.9 |
| O=C(O)C1CCCN1S(=O)(=O)c1ccc(Cl)c(Cl)c1 (centres unmarked) [CBK217856] | 99.1 |
| COC(=O)CCNc1n[nH]c(=O)[nH]c1=O [CBK217927] | 90.4 |
| CC1(C(=O)O)NC(c2ccccc2O)C2C(=O)N(Cc3ccccc3)C(=O)C21 (centres unmarked) [CBK218007] | 90.6 |
| CC1(C)CC(CCNC(=O)CCC(=O)O)(c2ccccc2)CCO1 (centres unmarked) [CBK218198] | 85.7 |
| Cn1c(=O)c2c(nc(N3CCOCC3)n2CCC/N=C2\CCCCN2)n(C)c1=O [CBK218356] | 105 |
| CSCCC(C(=O)O)N1C(=O)c2ccccc2C1=O (centres unmarked) [CBK218448] | 102 |
| O=[N+]([O-])c1ccc(CN2CCN(Cc3c[nH]c4ccccc34)CC2)cc1 [CBK218620] | 92.3 |
| O=[N+]([O-])c1cc(CN2CCN(c3ccccc3)CC2)c(O)c2ncccc12 [CBK218696] | 99.6 |
| O=c1oc2ccccc2c(NCCN2CCCCC2)c1[N+](=O)[O-] [CBK218805] | 92 |
| O=c1[nH]cnc2c1nc(S)n2C1OC(CO)C(O)C1O (centres unmarked) [CBK218834] | 96.4 |
| Cc1cc(=O)n2c3c(cc(S(=O)(=O)NC4CC4)cc13)CC2 [CBK218959] | 95.9 |
| N#CC1=C(N)Oc2cc(O)ccc2C1c1ccccc1 (centres unmarked) [CBK219303] | 90.3 |
| O=c1c(Cc2ccccc2)c(O)c2ccccc2n1Cc1ccccc1 [CBK219368] | 85.8 |
| CCC(=O)Nc1ccccc1C(=O)C(=O)O [CBK219398] | 120 |
| CCCCc1c(O)c2ccccc2n(Cc2ccccc2)c1=O [CBK219416] | 106 |
| Cc1ccc2nc(NCc3ccco3)c(/C=N/Cc3ccco3)c(=O)n2c1 [CBK220353] | 80.4 |
| O=C(CN1C(=O)c2ccccc2C1=O)NCC1COc2ccccc2O1 (centres unmarked) [CBK222526] | 96.8 |
| NNC(=O)CSc1nnc(-c2ccccc2)n1-c1ccccc1 [CBK223486] | 92.5 |

Reference: paper PMC12040169 (PLOS Biology, 2025)
